# From article PMC6661771, “Indole hybridized diazenyl derivatives: synthesis, antimicrobial activity, cytotoxicity evaluation and docking studies” (BMC Chemistry, 2019)
# Like-named read-outs stand apart in the source and are kept apart here.
# Assays:
# [1] = system: HCT 116; assay: MTT cell proliferation assay; assay type: cell-based; conditions: Homo sapiens, HCT-116, 48 h, HCT 116 colon cancer, 48 h of drug treatment
# Protocol: (§1) The cell lines used in study were initially procured from the National Centre for Cell Sciences (NCCS), Pune, India, and maintained in DMEM. The cell line was cultured in 25 cm^2 tissue culture flask with DMEM supplemented with 10% FBS, sodium bicarbonate, L-glutamine, and antibiotic solution containing: streptomycin (100 μg/ml), penicillin (100 U/ml). Cultured cell line was kept at 37 °C in a humidified 5% CO2 incubator (VWR, USA).
# (§2) The compounds found to have good antimicrobial potential were then screened for their cytotoxicity using MTT […]) assay. 1 × 10^4 cells/well were seeded in 100 µl DMEM/MEM, supplemented with 10% FBS in each well of 96-well microculture plates and incubated for 24 h at 37 °C in a CO2 incubator. After incubation, all the prepared/synthesized compounds were added to the cells at 10, 25, 50 and 100 µg concentrations for 48 h. After 48 h of drug treatment, 10 µl MTT (5 mg/ml) was added to each well and the plates were further incubated for 4 h. Then the supernatant from each well was carefully removed, formazan crystals were dissolved in 100 µl of DMSO and absorbance at 570 nm wavelength was recorded on an ELISA reader. The IC50 value was calculated using the linear regression equation i.e. Y = Mx + C. Here, Y = 50, M and C values were derived from the viability graph. The assay was performed in triplicate.
# [2] = system: MDA MB 231; assay: MTT cell proliferation assay; assay type: cell-based; conditions: MDA MB 231 breast cancer, 48 h of drug treatment
# Protocol: as §1, §2
# [3] = system: K562; assay: MTT cell proliferation assay; assay type: cell-based; conditions: Homo sapiens, K562 leukemia, 48 h of drug treatment
# Protocol: as §1, §2
# [4] = system: E. coli; assay: Minimum bactericidal concentration (MBC); assay type: cell-based; conditions: Escherichia coli
# [5] = system: E. coli; assay: MIC by tube dilution method; assay type: cell-based; conditions: 24 h at 37 °C
# [6] = system: S. aureus; assay: MIC by tube dilution method; assay type: cell-based; conditions: Staphylococcus aureus, 24 h at 37 °C, read-out: MIC
# [7] = system: S. enterica; assay: Minimum bactericidal concentration (MBC); assay type: cell-based; conditions: Salmonella enterica; S. enterica; MBC; read-out: MBC/MFC
# Protocol: After MIC assessment, the indole derivatives (DS1–DS21), were additionally evaluated for MBC and MFC values. […] The 10–15 ml of nutrient agar and Sabouraud dextrose agar was added to the petri plates for bacterial and fungal samples respectively with gentle shaking of plates in order to mix the culture throughout the media. Allowed the media to solidify. The petri plates were then incubated for the predefined time and temperature as referenced already for bacterial and fungal cultures respectively. The plates were then investigated visually for the development of microbial growth. The MBC and MFC were stated as the minimum concentration of the compounds in aliquots showing no visual growth after incubation.
# [8] = system: A. niger; assay: MIC by tube dilution method; assay type: cell-based; conditions: Aspergillus niger, 168 h, 7 days at 25 °C, read-out: MIC
# [9] = system: S. enterica; assay: MIC by tube dilution method; assay type: cell-based; conditions: Salmonella enterica, 24 h, 24 h at 37 °C, read-out: MIC
# [10] = system: A. fumigatus; assay: Minimum fungicidal concentration (MFC); assay type: cell-based; conditions: Aspergillus fumigatus, read-out: MBC/MFC
# [11] = system: A. fumigatus; assay: MIC by tube dilution method; assay type: cell-based; conditions: Aspergillus fumigatus, 168 h, 7 days at 25 °C, read-out: MIC
# [12] = system: B. subtilis; assay: Minimum bactericidal concentration (MBC); assay type: cell-based; conditions: Bacillus subtilis
# [13] = system: HEK-293; assay: MTT cell proliferation assay, normal cells; assay type: cell-based; conditions: Homo sapiens, HEK293, HEK-293 normal cells, 48 h of drug treatment
# Protocol: as §1, §2
# [14] = system: A. niger; assay: Minimum fungicidal concentration (MFC); assay type: cell-based; conditions: Aspergillus niger, read-out: MBC/MFC
# [15] = system: S. aureus; assay: Minimum bactericidal concentration (MBC); assay type: cell-based; conditions: Staphylococcus aureus
# [16] = system: K. pneumonia; assay: MIC by tube dilution method; assay type: cell-based; conditions: 24 h at 37 °C
# [17] = system: B. subtilis; assay: MIC by tube dilution method; assay type: cell-based; conditions: Bacillus subtilis, 24 h at 37 °C, read-out: MIC
# [18] = system: K. pneumonia; assay: Minimum bactericidal concentration (MBC); assay type: cell-based; conditions: Klebsiella pneumoniae
# [19] = Homo sapiens, MDA-MB-231, 48 h, read-out: IC50
# [20] = Escherichia coli, 24 h, read-out: MIC
# [21] = Klebsiella pneumoniae, 24 h, read-out: MIC
SMILES,IC50 [1] [µg/mL],"IC50 [2, 19] [µg/mL]",IC50 [3] [µg/mL],melting point [°C],"MIC [5, 20] [µg/mL]",MIC [6] [µg/mL],MBC [7] [µg/mL],MIC [8] [µg/mL],MIC [9] [µg/mL],MFC [10] [µg/mL],MIC [11] [µg/mL],MBC [12] [µg/mL],IC50 [13] [µg/mL],MFC [14] [µg/mL],MBC [15] [µg/mL],"MIC [16, 21] [µg/mL]",MIC [17] [µg/mL],IC50 [2] [µg/mL],MBC [18] [µg/mL],also measured
"C/C(=N/c1cc(Cl)ccc1Cl)c1ccc(/N=N\c2c[nH]c3ccc([N+](=O)[O-])cc23)cc1 [DS-10, (Z)-2,5-Dichloro-N-(1-(4-((Z)-(5-nitro-1H-indol-3-yl)diazenyl)phenyl)ethylidene)aniline]",204.9 ± 1.62,130 ± 3.51,199 ± 3.13,210 to 215,1.95,62.5,62.5,62.5,31.2,125,125,125,274 ± 4.58,125,125,3.9,62.5,–,–,MBC [4]: 31.2 µg/mL
"C/C(=N/c1ccc(C(=O)O)cc1)c1ccc(/N=N\c2c[nH]c3ccccc23)cc1 [DS-14, 4-((Z)-(1-(4-((Z)-(1H-Indol-3-yl)diazenyl)phenyl)ethylidene)amino)benzoic acid]",–,19 to 65,112 ± 3.64,205 to 210,1.95 to 3.9,62.5,7.81,62.5,1.95 to 3.9,125,31.2,62.5,244 ± 3.78,125,62.5,1.95 to 3.9,31.2,19.10 ± 1.43,3.9 to 7.81,MIC [5]: 3.90 µg/mL; MIC [16]: 1.95 µg/mL
"C/C(=N/CCNc1cccc2ccccc12)c1ccc(/N=N\c2c[nH]c3ccccc23)cc1 [DS-20, (Z)-N1-(1-(4-((Z)-(1H-Indol-3-yl)diazenyl)phenyl)ethylidene)-N2-(naphthalen-1-yl)ethane-1,2-diamine]",–,19 to 65,136 ± 4.74,110 to 115,1.95,125,31.2,62.5,15.6,125,62.5,125,233 ± 4.68,125,62.5,3.9,125,20.95 ± 1.93,15.6,–
"C/C(=N/c1nc2ccccc2s1)c1ccc(/N=N\c2c[nH]c3ccc([N+](=O)[O-])cc23)cc1 [DS-21, (Z)-N-(1-(4-((Z)-(5-Nitro-1H-indol-3-yl)diazenyl)phenyl)ethylidene)benzo[d]thiazol-2-amine]",125 ± 1.33,49.3 ± 4.15,158 ± 3.73,130 to 135,3.9,62.5,31.2,125,31.2,125,125,62.5,142 ± 3.25,125,62.5,3.9,31.2,–,–,–
